The source of these data is paper PMC10848157, “Assessing NH300094, a novel dopamine and serotonin receptor modulator with cognitive enhancement property for treating schizophrenia” (Frontiers in Pharmacology, 2024).

The subject of one data set is male Wistar rats. The data set is described as follows: Conditioned avoidance response test in rats. The format is in vivo. The note with it: Rattus norvegicus, single oral dose, read-out: ED50, inhibition of conditioned avoidance response. The source says: Shuttle-box Avoidance Test Video Analysis System (DigBehv-SBG, Shanghai Jiliang Software Technology Co. Ltd.) were used to assess the rats conditioned avoidance response.
Phase I: The rats responded to the conditioned stimulus (auditory and visual) by training with foot shock reinforcement. Briefly, rats were placed into the CAR shuttle boxes for a 5-min habituation followed by 30 trials presented on a 20-s variable interval (20–30 s) stimulus. Each rats were subjected to a conditioned stimulus which consisted of 10s presentation of light and white noise, and then followed by a scrambled 1.5 mA foot shock for 10 s. […] Rats with avoidance rates greater than 70% for 3 consecutive days were included in this study post-training.
Phase II: The qualified rats were randomly divided into 7 groups. […] The procedure in the testing phase was the same as the Phase I described. The number of avoidances, escapes, and escape failures were recorded.

Another data set has as its target T1, H1 receptor (Homo sapiens, UniProt P35367).
T1 construct: host or cells: HEK293/H1
As to the kind of experiment: H1 receptor functional assay (calcium flow, FLIPR). The format is cell-based. Conditions: HEK293/H1 cells, read-out: H1R, IC50.

Another data set has as its target T2, 5-HT2C receptor (Homo sapiens, UniProt P28335).
T2 sequence (P28335 33-458): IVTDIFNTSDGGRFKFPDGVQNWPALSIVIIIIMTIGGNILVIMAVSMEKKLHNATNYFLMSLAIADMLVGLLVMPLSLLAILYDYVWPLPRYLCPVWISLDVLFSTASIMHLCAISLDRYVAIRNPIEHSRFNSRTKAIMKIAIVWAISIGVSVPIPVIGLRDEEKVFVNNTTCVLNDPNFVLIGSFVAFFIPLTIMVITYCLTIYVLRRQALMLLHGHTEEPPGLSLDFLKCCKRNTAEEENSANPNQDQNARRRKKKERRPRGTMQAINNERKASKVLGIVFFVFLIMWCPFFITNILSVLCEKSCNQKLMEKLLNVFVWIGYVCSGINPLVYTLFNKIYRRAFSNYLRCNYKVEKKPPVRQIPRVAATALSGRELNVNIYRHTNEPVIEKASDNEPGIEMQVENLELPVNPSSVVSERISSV
As to the kind of experiment: 5-HT2C receptor functional assay (calcium flow, FLIPR). The class given is cell-based. The note with it: HEK293/5-HT2C cells, read-out: 5HT2cR, IC50.

Data set [1] concerns male ICR mice. The note with it: p.o.
The nature of the next data set: in vivo. Conditions: male, ICR, mouse, po.
Data set [2] deals with male ICR mice. The data set is described as follows: MK-801-induced hyperactivity in mice. The format is in vivo. The note with it: single oral dose. The procedure: Immediately after injection with either saline or MK-801 (0.3 mg/kg, i.p.), the mice were placed into the test chambers (29 cm × 29 cm × 30 cm) for 60 min of locomotion recording using a tracking and computerized analysis system (TopScan Version 3.00, Clever Sys Inc., Leesburg, VA).

A further data set addresses 5-HT2A receptor (Homo sapiens, UniProt P28223). The data set is described as follows: 5-HT2A receptor functional assay (calcium flow, FLIPR, antagonist). The class given is cell-based.
Data set [3] deals with male ICR mice. As to the kind of experiment: APO-induced climbing in mice.
A further data set has as its target D2S receptor (Homo sapiens, UniProt P14416). As to the kind of experiment: D2S receptor functional assay (cAMP assay, antagonist). Conditions: antagonist activity, CHO-K1/D2 cells, read-out: D2SR, IC50. The format is cell-based.
Another data set concerns the target D2L receptor (Homo sapiens, UniProt P14416). As to the kind of experiment: D2L receptor functional assay (cAMP assay, antagonist). The class given is cell-based. The note with it: antagonist activity, CHO-K1/D2 cells, read-out: D2LR, IC50. On the technique in general: Cyclic AMP is a second messenger, typically raised through Gs and lowered through Gi signalling.

A further data set addresses T3, Alpha2A receptor (Homo sapiens, UniProt P08913).
T3 construct: expressed in transfected cells; host or cells: HEK293/Alpha2A (constructed by Shanghai shujing Biopharma)
T3 sequence (P08913 1-465): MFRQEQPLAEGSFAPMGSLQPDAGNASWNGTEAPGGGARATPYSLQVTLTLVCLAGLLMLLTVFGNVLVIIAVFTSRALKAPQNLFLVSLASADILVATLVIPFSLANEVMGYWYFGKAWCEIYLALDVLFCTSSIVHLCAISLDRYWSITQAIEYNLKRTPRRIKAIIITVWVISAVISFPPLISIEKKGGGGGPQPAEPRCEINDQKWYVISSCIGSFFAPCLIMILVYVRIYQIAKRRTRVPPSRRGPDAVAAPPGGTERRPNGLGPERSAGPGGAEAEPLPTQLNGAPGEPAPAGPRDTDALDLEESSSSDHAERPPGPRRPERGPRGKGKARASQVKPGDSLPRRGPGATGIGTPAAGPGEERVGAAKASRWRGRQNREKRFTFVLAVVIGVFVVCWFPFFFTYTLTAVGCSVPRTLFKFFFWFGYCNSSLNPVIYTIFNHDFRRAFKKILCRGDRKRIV
The data set is described as follows: Alpha2A receptor functional assay (cAMP assay). Conditions: HEK293/Alpha2A cells, read-out: Alpha2AR, IC50. The class given is cell-based.

Another data set deals with T4, 5-HT1A receptor (Homo sapiens, UniProt P08908).
T4 sequence (P08908 1-422): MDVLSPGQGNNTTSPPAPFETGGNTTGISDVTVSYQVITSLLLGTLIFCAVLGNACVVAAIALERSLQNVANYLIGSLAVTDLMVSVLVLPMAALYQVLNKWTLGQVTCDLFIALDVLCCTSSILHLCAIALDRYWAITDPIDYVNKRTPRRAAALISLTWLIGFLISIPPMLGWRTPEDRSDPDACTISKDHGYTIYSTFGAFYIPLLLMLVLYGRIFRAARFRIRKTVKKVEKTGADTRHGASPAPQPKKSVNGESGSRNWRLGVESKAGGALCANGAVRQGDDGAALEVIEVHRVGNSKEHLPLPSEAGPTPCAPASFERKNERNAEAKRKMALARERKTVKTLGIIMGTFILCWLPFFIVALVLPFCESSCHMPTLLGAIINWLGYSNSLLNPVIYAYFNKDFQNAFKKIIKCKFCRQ
The data set is described as follows: 5-HT1A receptor functional assay (cAMP assay, antagonist). The format is cell-based. Conditions: antagonist activity, CHO-K1/5-HT1A cells, read-out: 5HT1AR, IC50.

Data set [4] has as its system male ICR mice. The data set is described as follows: DOI-induced head twitch in mice.
[5] abbreviates: single oral dose, male ICR mice.

5-HT2A receptor, sequence (P28223 whole entry): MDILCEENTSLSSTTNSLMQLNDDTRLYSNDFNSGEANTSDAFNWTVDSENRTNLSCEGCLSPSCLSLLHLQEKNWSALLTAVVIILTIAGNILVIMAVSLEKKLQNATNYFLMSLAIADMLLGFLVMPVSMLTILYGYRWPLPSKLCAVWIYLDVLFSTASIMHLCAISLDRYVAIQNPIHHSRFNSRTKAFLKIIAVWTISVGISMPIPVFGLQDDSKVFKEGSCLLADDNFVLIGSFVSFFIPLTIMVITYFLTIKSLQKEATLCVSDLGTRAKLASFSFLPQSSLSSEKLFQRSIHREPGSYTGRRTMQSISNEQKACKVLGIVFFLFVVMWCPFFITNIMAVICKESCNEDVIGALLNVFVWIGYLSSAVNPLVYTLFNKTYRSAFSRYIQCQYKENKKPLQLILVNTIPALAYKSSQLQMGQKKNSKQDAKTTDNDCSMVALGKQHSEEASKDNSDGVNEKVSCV
D2L receptor, sequence (P14416 whole entry): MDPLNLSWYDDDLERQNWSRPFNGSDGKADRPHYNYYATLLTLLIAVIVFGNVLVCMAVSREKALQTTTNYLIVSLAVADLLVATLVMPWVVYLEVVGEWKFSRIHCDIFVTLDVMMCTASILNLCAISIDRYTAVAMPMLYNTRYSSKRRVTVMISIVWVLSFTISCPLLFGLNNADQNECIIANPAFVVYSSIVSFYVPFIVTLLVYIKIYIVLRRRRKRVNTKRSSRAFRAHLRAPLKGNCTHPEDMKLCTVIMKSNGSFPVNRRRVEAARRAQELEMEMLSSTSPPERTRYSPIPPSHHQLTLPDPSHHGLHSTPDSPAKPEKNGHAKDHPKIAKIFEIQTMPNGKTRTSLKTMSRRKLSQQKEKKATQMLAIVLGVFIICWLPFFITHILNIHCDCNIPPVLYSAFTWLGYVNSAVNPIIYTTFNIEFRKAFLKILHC
D2S receptor, sequence (P14416 1-414 isoform P14416-2): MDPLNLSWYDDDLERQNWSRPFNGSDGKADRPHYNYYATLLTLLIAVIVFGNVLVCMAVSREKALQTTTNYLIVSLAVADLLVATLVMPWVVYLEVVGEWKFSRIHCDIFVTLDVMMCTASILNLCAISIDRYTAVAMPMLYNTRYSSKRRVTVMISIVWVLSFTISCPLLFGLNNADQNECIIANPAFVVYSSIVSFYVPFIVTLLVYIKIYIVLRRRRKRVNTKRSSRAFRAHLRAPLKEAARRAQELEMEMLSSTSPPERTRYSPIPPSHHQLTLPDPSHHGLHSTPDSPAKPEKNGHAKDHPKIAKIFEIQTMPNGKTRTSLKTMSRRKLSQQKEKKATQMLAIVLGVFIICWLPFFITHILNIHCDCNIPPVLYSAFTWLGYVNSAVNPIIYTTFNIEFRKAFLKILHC
T1 sequence (P35367 whole entry): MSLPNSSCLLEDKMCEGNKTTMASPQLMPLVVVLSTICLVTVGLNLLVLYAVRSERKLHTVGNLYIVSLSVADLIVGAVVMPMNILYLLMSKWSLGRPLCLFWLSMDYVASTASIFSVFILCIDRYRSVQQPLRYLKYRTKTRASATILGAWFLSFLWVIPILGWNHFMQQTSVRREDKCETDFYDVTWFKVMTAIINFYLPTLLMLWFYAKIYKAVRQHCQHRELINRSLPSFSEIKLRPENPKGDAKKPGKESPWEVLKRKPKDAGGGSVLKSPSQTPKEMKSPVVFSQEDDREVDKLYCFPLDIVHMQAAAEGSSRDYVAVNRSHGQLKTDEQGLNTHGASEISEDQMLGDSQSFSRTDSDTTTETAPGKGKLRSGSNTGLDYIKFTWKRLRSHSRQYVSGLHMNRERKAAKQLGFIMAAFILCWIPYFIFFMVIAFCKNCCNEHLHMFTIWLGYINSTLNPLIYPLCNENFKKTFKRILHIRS

As for `O=C1CCc2cc(OCCCN3CCC(c4noc5cc(F)ccc45)CC3)cc3c2N1CC3` [NH300094, 8-(3-(4-(6-fluorobenzo [d]isoxazol-3-yl)piperidin-1-yl)propoxy)-1,2,5,6-tetrahydro-4H-pyrrolo [3,2,1-ij] quinolin-4-one], the ED50 was roughly 1.02 mg/kg with male Wistar rats; 6.73 mg/kg in the data set “in vivo”; roughly 0.07 mg/kg in the data set on male ICR mice [2] (Mus musculus, MK-801 0.3 mg/kg i.p., read-out: ED50, inhibition of MK-801-induced hyperactivity); roughly 0.29 mg/kg with male ICR mice [3] (Mus musculus, read-out: ED50, inhibition of APO-induced climbing); roughly 0.007 mg/kg in the data set on male ICR mice [4] (Mus musculus, po, read-out: ED50, inhibition of DOI-induced head twitch, single oral dose, male ICR mice, DOI 1 mg/kg). In addition, the half-maximal inhibitory concentration (IC50) was found to be 126 nM on H1 receptor; 3020 nM at 5-HT2C receptor; 0.47 ± 0.79 nM at 5-HT2A receptor (antagonist activity, calcium flow FLIPR, CHO-K1/5-HT2A cells, read-out: 5HT2AR, IC50); 11.7 ± 9.38 nM on D2S receptor; 1.04 ± 0.59 nM on D2L receptor; 314 nM on Alpha2A receptor. Also, the IC50 at 5-HT1A receptor came to 85.6 ± 61.5 nM. In addition, the “minimal dose that induced catalepsy” value with male ICR mice [1] worked out at 3 mg/kg. Besides, the “Minimum effective dose (MED), MK-801-induced hyperactivity” value in the data set on male ICR mice [2] is listed as 0.03 mg/kg. The “antagonistic activities ratio of 5-HT2AR and D2R (IC50 ratio)” value on 5-HT2A receptor (IC50 5-HT2AR / IC50 D2R) is 0.45. The “MED, APO-induced climbing” value with male ICR mice [3] (setting [5]) amounted to 0.3 mg/kg. In addition, the “MED, DOI-induced head twitch” value in the data set on male ICR mice [4] (setting [5]) came out at 0.003 mg/kg.

As a reminder, the IC50 is the concentration that gives 50% inhibition.
